In patent US5880099A, “Inositol polyphosphates and methods of using same” (The Regents of the University of California, priority 1997, dated 1999):

Key:
Assay type in all cases: cell-based, human
[1] = test system: T84 cells (carbachol-stimulated chloride ion secretion); experiment: Carbachol-stimulated (calcium-mediated) chloride ion secretion in T84 cells
Experimental: The cell permeable derivative D,L-Bt3 -Ins(1,3,4)P3 /AM was synthesized. Colonic epithelial T84 cells were preincubated for 30 min with 400 μM D,L-Bt3 -Ins(1,3,4)P3 /AM prior to mounting in Ussing chambers and measuring ΔIsc. At 10 min, carbachol (10^-4 M) was added to transiently stimulate calcium-mediated chloride ion secretion. Data were the average of 8 experiments with p<0.04, unpaired, two-sided student's t-test. […]

[2] = test system: Ins(3,4,5,6)P4; experiment: Intracellular Ins(3,4,5,6)P4 level in (3H)-inositol labeled T84 cells; conditions: 400 μM D,L-Bt3 -Ins(1,3,4)P3 /AM
[3] = test system: colonic epithelial T84 cells (calcium-mediated chloride ion secretion); experiment: Inhibition of calcium-mediated chloride ion secretion (Table I summary)
How it was run: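 T84 monolayers (passages 18-48, 7-10 days on permeable supports) preincubated with 100, 200 or 400 μM Bt2-Ins(3,4,5,6)P4/AM for 30 min before Ussing-chamber mounting. After another 30 min, 0.1 mM histamine added; chloride secretion recorded as voltage-clamped short circuit current (Isc).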

[4] = test system: T84 cells (histamine-stimulated chloride ion secretion); experiment: Histamine-stimulated chloride ion secretion (short circuit current) in T84 monolayers
Experimental: Enantiomerically pure 1,2-Bt2 -Ins(3,4,5,6)P4 /AM was synthesized to determine if 1,2-Bt2 -Ins(3,4,5,6)P4 /AM mediates the uncoupling of chloride ion secretion from intracellular calcium concentrations. […] After 7-10 days of incubation on SNAP-WELLS (Corning Costar; Cambridge, Mass.), monolayers had formed tight junctions. Cell monolayers were preincubated with 100, 200 or 400 μM Bt2 -Ins(3,4,5,6)P4 /AM for 30 min prior to mounting. After an additional 30 min, 0.1 mM histamine was added and chloride ion secretion was monitored. Chloride ion secretion was measured as short circuit current (Isc) across T84 monolayers grown to confluence and mounted in Ussing chambers equipped with voltage clamps (Physiologic Instruments; San Diego, Calif.). Data was acquired and analyzed using "Acquire and Analyze" software (Physiologic Instruments).
Initial studies were directed towards understanding structural determinants of Ins(3,4,5,6)P4 responsible for the inhibitory effect on calcium-mediated chloride ion secretion. A series of cell permeable inositol polyphosphate derivatives were synthesized. These derivatives contained either one or two non-hydrolyzable chemical groups on the 1, 2 or 3 position. T84 monolayers were preincubated for 30 minutes with 200 μM of 2-Bt-1-Me-Ins(3,4,5,6)P4 /AM, Me2 -Ins(3,4,5,6)P4 /AM, Me2 -Ins(1,4,5,6)P4 /AM or 2-Bt-3-Me-Ins(1,4,5,6)P4 /AM.
Following the incubation, cells were mounted in Ussing chambers. Calcium-mediated chloride ion secretion was stimulated with histamine (10^-4 M). Control values were the response to histamine in coincubated monolayers. Data are represented as mean peak ΔIsc ±SEM, expressed as % control for 8 to 10 experiments. Significant differences were identified using the Student's two-tailed t test.

[5] = test system: T84 cells (PtdInsP3-mediated decrease in chloride ion secretion); experiment: Reversal of PtdInsP3-mediated decrease in chloride ion secretion in T84 cells; conditions: FIG. 7d, 7e
Experimental: T84 cells also were preincubated with cell permeable Ins(1,4,5,6)P4 derivatives to determine whether Ins(1,4,5,6)P4 can reverse PtdInsP3 -mediated decreases in chloride ion secretion.

[6] = test system: T84 cells (EGF inhibition of cyclic AMP-mediated chloride ion secretion); experiment: EGF inhibition of cyclic AMP-mediated chloride ion secretion, reversal
[7] = test system: T84 cells (EGF induced inhibition of chloride ion secretion); experiment: EGF induced inhibition of carbachol-stimulated chloride ion secretion in T84 cells and its reversal; conditions: EGF 16.3 nM, carbachol 100 μM
Experimental: After an additional 15 min incubation, 100 μM carbachol was added to acutely elevate intracellular calcium concentrations. Controls also were stimulated with carbachol but were not pretreated with EGF. Data are the means of duplicate measurements from a representative experiment (total of three experiments).

[8] = test system: intracellular calcium; experiment: Intracellular calcium concentration in treated cells
Experimental: Elevation in intracellular calcium concentration leads to increased chloride ion secretion. To ensure that none of the effects of the inositol polyphosphate derivatives on chloride ion secretion were due to changes in calcium levels, the concentration of intracellular calcium was measured in cells treated with the inositol polyphosphate derivatives. […] None of the compounds tested altered intracellular calcium levels by themselves or modified levels of intracellular calcium stimulated with carbachol or thapsigargin. Therefore, the effects of inositol polyphosphate derivatives on chloride ion secretion are not due to any effect on intracellular calcium concentrations.

SMILES	peak ΔIsc ([1]; 400 μM, 30 min preincubation, carbachol 10^-4 M, 8 experiments, control 15.2±2.8, p<0.04)	inhibition at 400 µM ([1]; Homo sapiens, 0.5 h, 400 μM D,L-Bt3 -Ins(1,3,4)P3 /AM, read-out: decrease of calcium-mediated chloride ion secretion) [%]	effect on carbachol-stimulated / calcium-mediated chloride ion secretion (in words) ([1]; T84 cells, preincubation)	increase in Ins(3,4,5,6)P4 [2]	Mechanism and Inositol Polyphosphate Pathway Affected ([3]; pathway: Ins (3,4,5,6)P4)	activity at 400 µM ([4]; Homo sapiens, T84, 0.5 h, 400 μM compound alone, mean ± SEM, read-out: Peak ΔIsc (% Control) after histamine (100 μM)) [%]	effect on histamine-stimulated / calcium-mediated chloride ion secretion (in words) ([4]; T84 cells)	effect on PtdInsP3-mediated decrease in chloride ion secretion (in words) [5]	reversal of EGF inhibition of cyclic AMP-mediated chloride ion secretion (in words) [6]	effect on carbachol-stimulated chloride ion secretion / EGF induced inhibition (in words) [7]	effect on carbachol-stimulated chloride ion secretion / EGF induced inhibition (in words) ([7]; listed as Bt2 Ins(1,4,5,6)P4 /AM)	effect on intracellular calcium (in words) ([8]; alone)	effect on calcium response to thapsigargin or carbachol (in words) ([8]; thapsigargin or carbachol stimulated)	Mechanism and Inositol Polyphosphate Pathway Affected ([3]; pathway: PtdInsP3)
CCCC(=O)O[C@@H]1[C@@H](OC(=O)CCC)[C@H](OP(=O)(OCOC(C)=O)OCOC(C)=O)[C@@H](OP(=O)(OCOC(C)=O)OCOC(C)=O)[C@@H](OC(=O)CCC)[C@H]1OP(=O)(OCOC(C)=O)OCOC(C)=O (relative stereo) [D,L-Bt3 -Ins(1,3,4)P3 /AM, D,L-2,5,6-tri-O-butyryl-myo-inositol 1,3,4-trisphosphate hex (acetoxymethyl) ester]	7.9±1.6	~50	inhibits calcium-mediated chloride ion secretion	three-fold increase	Agonist of									
CCCC(=O)O[C@@H]1[C@H](OC(=O)CCC)[C@@H](OP(=O)(OCOC(C)=O)OCOC(C)=O)[C@H](OP(=O)(OCOC(C)=O)OCOC(C)=O)[C@@H](OP(=O)(OCOC(C)=O)OCOC(C)=O)[C@@H]1OP(=O)(OCOC(C)=O)OCOC(C)=O [Bt2 -Ins(1,4,5,6)P4 /AM, 2,3-di-O butyryl-myo-inositol 1,4,5,6-TKphosphate oct (acetoxymethyl) ester]						138 ± 20.7	did not inhibit chloride ion secretion and in fact led to a slight increase in chloride ion secretion	enhances chloride ion secretion	did not reverse EGF inhibition of cyclic AMP-mediated chloride ion secretion	enhances chloride ion secretion	significantly reversed EGF induced inhibition of chloride ion secretion	did not elevate intracellular calcium	did not elevate intracellular calcium or the calcium response to thapsigargin	Antagonist of
